Source: patent US10730851B2, “Polymorph of triaryldimethylpiperazine dihydrochloride and preparation method and application thereof” (priority 2016, dated 2020)
Converted amounts (≈) assume the structure as drawn.

Legend:
SPF-grade SD rats = assay: Forced swimming test; format: in vivo; conditions: 40 mg/kg Ip, three times (23.5 h, 5 h, 1 h before test), x ± SEM
Experimental: Forced swimming test is used to test the antidepressant effects of polymorph forms P, F, O, B and J.
the swimming test equipment is a transparent glass round cylinder with a height of 46 cm and an inner diameter of 20 cm, the test water temperature is 23° C.˜25° C., the test water depth is 30 cm, and each cylinder is used only once.
300 mg of a polymorph form P is weighed with an electronic balance, and the polymorph form P is dissolved with 0.9% normal saline, and finally the volume is fixed to 100 mL with 0.9% normal saline, at this time, the concentration of dihydrochloride in the experimental reagent is 3 mg/mL for later use.
600 mg of a polymorph form P is weighed with an electronic balance, and the polymorph form P is dissolved with 0.9% normal saline, and finally the volume is fixed to 100 mL with 0.9% normal saline, at this time, the concentration of dihydrochloride in the experimental reagent is 6 mg/mL for later use.
400 mg of desipramine (DMI) is weighed with an electronic balance, DMI is dissolved with 0.9% normal saline, and then the volume is fixed to 100 mL with 0.9% normal saline for later use.
Forty SPF-grade SD rats are prepared and randomly divided into 4 groups, namely vehicle control group, positive control group, experimental group 1 and experimental group 2, with 10 rats in each group. The day before the test, the rats were placed in water for 15 min to pre-swim for 15 min in advance to adapt to the swimming test environment, then taken out and dried, placed in the cage under an infrared lamp for 15 min and then placed in the original cage. After 24 h, a formal swimming test is conducted, that is, the rats are put into water again after 24 h, and the rats are continuously observed for 5 min. The swimming process are needed to be photographed. The drug is administered during two swimming sessions.
The positive control group containing DMI is administered three times, at 23.5 h, 5 h and 1 h before the formal swimming test respectively. Vehicle control group, experimental group 1 and experimental group 2 are each administered only once and subcutaneously within 1 h.
The behaviors of the rats are scored by the scorer every 5 seconds after recording the experiment.
1) Static—when the rat floats on the water surface without struggling and moves only to keep its head above the water surface, the rat is evaluated as static;
2) Swimming—if the rats have obvious swimming behaviors, not only to keep their heads above the water surface, or to travel around in a round cylinder, they are evaluated as swimming;
3) Wall climbing—the rats' front paws have obvious behavior of entering and leaving the water surface, usually, rats are evaluated as wall climbing in front of the round cylinder wall.
All behavioral are scored by a single person. To avoid bias of observation, the scorer only observed and scored without knowing the administration situations. Then multiple test fragments are randomly selected, and the scorer will score the second round to determine the accuracy of observation. The test video is scored again by the second scorer to determine the accuracy between scorers. The second scorer are also required to observe without knowing the drug administration. Finally, in order to determine the effectiveness of the method, the first scorer scored again and recorded the duration of various behaviors with a stopwatch.
SPSSwin11.0 software is used for variance analysis. One-way variance analysis is used for homogeneity of variance, and Dunnett test is used for heterogeneity of variance.

[1] = Dynamic solubility test in water, SGF, FeSSIF, FaSSIF; format: physicochemical
Experimental: The dynamic solubility of a free base, polymorph forms B, P, F, J and O in water or a biological medium such as Stimulated Gastric Fluid (SGF), Fed State Simulated Intestinal Fluid (FeSSIF) or Fasted State Simulated Intestinal Fluid (FaSSIF) is determined.
0.2 g sodium chloride and 0.1 g Triton X-100 is weighed and placed into a 100 mL volumetric flask. Purified water is added to dissolve. A stir is performed until the solid is completely dissolved. About 135 μL concentrated hydrochloric acid solution (37%, […]) is added, then the pH is adjusted to 1.8 with […] hydrochloric acid or 1 mmoL/L sodium hydroxide. Finally, the volume is fixed with purified water to obtain Stimulated Gastric Fluid (SGF) for later use.
Each of 0.41 mL glacial acetic acid, 0.20 g sodium hydroxide and 0.59 g sodium chloride is weighed and placed to a 50 mL volumetric flask. About 48 mL purified water is added to dissolve, the pH is adjusted to 5.0 with 1 mmoL/L hydrochloric acid or 1 mmoL/L sodium hydroxide, and the volume is fixed with purified water. Then 0.56 g of Simulated Intestinal Fluid powder (SIF powder for short, which is composed of […] with a molar ratio of 4:1) is added, stirred and ultrasonically dissolved to obtain Fed State Simulated Intestinal Fluid (FeSSIF) for later use.
Each of 0.17 g of anhydrous sodium dihydrogen phosphate (NaH2PO4), 0.021 g of sodium hydroxide and 0.31 g of sodium chloride is weighed and placed into a 50 mL volumetric flask. About 48 mL of purified water is added to dissolve, the pH is adjusted to 6.5 with 1 mmoL/L hydrochloric acid or 1 mmoL/L sodium hydroxide, and the volume is fixed with purified water. 0.11 g of SIF powder is added, stirred and ultrasonically dissolved to obtain Fasted State Simulated Intestinal Fluid (FaSSIF) for later use.
Each 30 mg of the free base, and polymorph forms B, P, F, J and O are weighed. 3 mL of purified water, Stimulated Gastric Fluid (SGF), Fed State Simulated Intestinal Fluid (FeSSIF) or Fasted State Simulated Intestinal Fluid (FaSSIF)) is added and oscillated at room temperature. 0.6 mL of suspension is taken each time at a set time point, filtered and separated with a 0.45 μm nylon filter membrane, then XRPD characterization is performed on the solid sample, and the concentration in the clear solution is measured by HPLC.

[2] = Relative bioavailability test; format: in vivo, SPF-grade SD rats; conditions: rats, 20 mg/kg·bw by gavage in 0.5% CMC-Na, x ± s, n = 6, 20 mg/kg
Experimental: HPLC-MS/MS method is used to detect the blood drug concentration of target drugs in SPF-grade SD rats, and the relative bioavailability of 0.5% CMC-Na suspension of a free base and 0.5% CMC-Na solution of a polymorph form P are calculated and compared.
60.46 mg of a free base is accurately weighed and placed into a 15 mL centrifuge tube, 12 mL of 0.5% CMC-Na solution is measured and added into the centrifuge tube with a measuring cylinder, vortexed for 5 min, and ultrasonically dispersed for 15 min to obtain 0.5% CMC-Na suspension of free base with a concentration of 5.04 mg/ml, which is currently formulated when using and vibrated at any time during administration.
60.05 mg of a polymorph form P is accurately weighed and placed into a 15 mL centrifuge tube, 12 mL of 0.5% CMC-Na solution is measured and added into the centrifuge tube with a measuring cylinder, vortexed for 5 min, and ultrasonically dispersed for 15 min to obtain 0.5% CMC-Na solution of 5.00 mg/mL polymorph form P, which is currently formulated when using.
Twelve SPF-grade SD rats are selected and randomly divided into a free base group and a polymorph form P group with 6 rats in each group (both male and female). Animals are fasted for 12 h but have free access to water. Weighing is performed and, the administration volume of each rat is calculated according to the animal weight, so that the administration dose is 20 mg/kg·bw. During administration, the drugs are each administrated by gavage, and 0.5% CMC-Na suspension/solution of the above two target drugs are extracted by 2 mL syringe respectively. The gavage needle is inserted into the stomach from the corner of the rat's mouth and pushed the solution thereto.
Blood is collected from the fundus venous plexus of rats at 0.2 mL before (0 h) and 0.5, 1, 2, 4, 6, 8, 12 and 24 h after administration, anticoagulated with 300 IU/mL heparin (1:20) and centrifuged (3000 r/min) for 15 min. After plasma separation, the blood drug concentration of the target drug is determined by HPLC-MS/MS.
Referring to the above-mentioned bioavailability test of the polymorph form P, the bioavailability tests of polymorph forms F, O, B and J are conducted respectively. Different from the bioavailability test of the polymorph form P, rats are given 0.5% CMC-Na solution of the polymorph form F, O, B or J by gavage respectively. Other operations are the same as the above bioavailability test.

CNCCCN1c2ccccc2CCc2ccccc21 [desipramine, reference compound]
Behavior duration, Static (SPF-grade SD rats): 37.5 ± 6.5 s
Behavior duration, Swimming (SPF-grade SD rats): 143.0 ± 15.5 s
Behavior duration, Wall climbing (SPF-grade SD rats): 119.5 ± 12.0 s
Number of behaviors, Swimming (SPF-grade SD rats): 28.6 ± 3.1 times
Number of behaviors, Wall climbing (SPF-grade SD rats): 23.9 ± 2.4 times
Number of behaviors, Static (SPF-grade SD rats; 5 min observation): 7.5 ± 1.3 times

CC1CCN(C(=O)c2ccc([C@H](c3cccc(O)c3)N3C[C@@H](C)N(Cc4cccc(F)c4)C[C@@H]3C)cc2)CC1 [free base]
pH in clear solution ([1]; FaSSIF, Time 1): 6.5
Crystal form of insoluble solid sample ([1]; FaSSIF, Time 1, XRPD): invariability
Solubility ([1]; FaSSIF, Time 1, room temperature): 13 µg/mL (≈ 24.5 µM)
pH in clear solution ([1]; FaSSIF, Time 2): 6.5
Crystal form of insoluble solid sample ([1]; FaSSIF, Time 2, XRPD): invariability
Solubility ([1]; FaSSIF, Time 2, room temperature): 17 µg/mL (≈ 32.1 µM)
pH in clear solution ([1]; FaSSIF, Time 4): 6.5
Crystal form of insoluble solid sample ([1]; FaSSIF, Time 4, XRPD): invariability
Solubility ([1]; FaSSIF, Time 4, room temperature): 16 µg/mL (≈ 30.2 µM)
pH in clear solution ([1]; FaSSIF, Time 24): 6.5
Crystal form of insoluble solid sample ([1]; FaSSIF, Time 24, XRPD): invariability
Solubility ([1]; FaSSIF, Time 24, room temperature): 27 µg/mL (≈ 51 µM)
pH in clear solution ([1]; FeSSIF, Time 1): 4.9
Crystal form of insoluble solid sample ([1]; FeSSIF, Time 1, XRPD): invariability
Solubility ([1]; FeSSIF, Time 1, room temperature): 59 µg/mL (≈ 111 µM)
pH in clear solution ([1]; FeSSIF, Time 2): 5.0
Crystal form of insoluble solid sample ([1]; FeSSIF, Time 2, XRPD): invariability
Solubility ([1]; FeSSIF, Time 2, room temperature): 63 µg/mL (≈ 119 µM)
pH in clear solution ([1]; FeSSIF, Time 4): 5.0
Crystal form of insoluble solid sample ([1]; FeSSIF, Time 4, XRPD): invariability
Solubility ([1]; FeSSIF, Time 4, room temperature): 62 µg/mL (≈ 117 µM)
pH in clear solution ([1]; FeSSIF, Time 24): 5.0
Crystal form of insoluble solid sample ([1]; FeSSIF, Time 24, XRPD): invariability
Solubility ([1]; FeSSIF, Time 24, room temperature): 81 µg/mL (≈ 153 µM)
pH in clear solution ([1]; SGF, Time 1): 1.9
Crystal form of insoluble solid sample ([1]; SGF, Time 1, XRPD): invariability
Solubility ([1]; SGF, Time 1, room temperature): 2100 µg/mL (≈ 3960 µM)
pH in clear solution ([1]; SGF, Time 2): 1.9
Crystal form of insoluble solid sample ([1]; SGF, Time 2, XRPD): invariability
Solubility ([1]; SGF, Time 2, room temperature): 2700 µg/mL (≈ 5100 µM)
pH in clear solution ([1]; SGF, Time 4): 1.9
Crystal form of insoluble solid sample ([1]; SGF, Time 4, XRPD): invariability
Solubility ([1]; SGF, Time 4, room temperature): 2700 µg/mL (≈ 5100 µM)
pH in clear solution ([1]; SGF, Time 24): 2.1
Crystal form of insoluble solid sample ([1]; SGF, Time 24, XRPD): invariability
Solubility ([1]; SGF, Time 24, room temperature): 3200 µg/mL (≈ 6040 µM)
pH in clear solution ([1]; Water, Time 1): 5.6
pH in clear solution ([1]; Water, Time 2): 5.7
Crystal form of insoluble solid sample ([1]; Water, Time 2, XRPD): invariability
Solubility ([1]; Water, Time 2, room temperature): <LOQ
pH in clear solution ([1]; Water, Time 4): 5.6
Crystal form of insoluble solid sample ([1]; Water, Time 4, XRPD): invariability
Solubility ([1]; Water, Time 4, room temperature): <LOQ
pH in clear solution ([1]; Water, Time 24): 5.8
Crystal form of insoluble solid sample ([1]; Water, Time 24, XRPD): invariability
Solubility ([1]; Water, Time 24, room temperature): <LOQ
AUC(0-24h) [2]: 288.6 ng·h/mL
AUC(0-24h) ([2]; listed as Free base): 288.6 ± 64.7 ng·h/mL
Cmax ([2]; listed as Free base): 51.68 ± 6.56 ng/mL
Tmax ([2]; listed as Free base): 3.6 ± 0.9 h
t1/2z ([2]; listed as Free base): 2.4 ± 0.8 h
